Results: patent US12398132B2, “Derivatives of 4-(imidazo[1,2-a]pyridin-3-yl)-n-(pyridinyl)pyrimidin-2-amine as therapeutic agents” (AUCENTRA THERAPEUTICS PTY LTD, priority 2019, dated 2025)
Substitutions are numbered along the chain they refer to.

Legend:
[1] = biological target: T1, CDK1B (Homo sapiens, UniProt P06493); test: biochemical
[2] = tested on: U937; test: Proliferation assay (resazurin/MTT), U937; format: cell-based; conditions: Homo sapiens, U-937, read-out: 72 h Growth inhibition GI50, U937 cells
[3] = biological target: CDK6/D3 (Homo sapiens, UniProt Q00534); test: ADP Glo kinase assay, CDK6/D3; format: biochemical; conditions: CDK6D3; for Ki: apparent Ki calculated from Km (ATP) and IC50, read-out: CDK inhibition Ki
Procedure: (§1) Inhibition of FLT3(WT), FLT3(ITD) and FLT3(D835Y) and CDKs were determined using ADP Glo Kinase assays (Promega Corporation, Madison, WI, USA). […] Similarly, kinase reaction for CDK4/D1 and CDK6/D3 was performed with reaction buffer (40 nM Tris base pH 7.5, 20 mM MgCl2, 0.4 mM DTT), 0.1 mg/ml BSA and RB-CTF substrate (retinoblastoma protein1 C-terminal fraction). For CDK9/CyclinT1, the kinase reaction was performed with the standard assay buffer and Kinase Dilution Buffer and RBER-IRStide substrate. Half-maximal inhibition (IC50) values were calculated using a 4-parameter logistic non-linear regression model with Graphpad prism (Version 6.0). Apparent inhibition constants (Ki) values were calculated from Km (ATP) and IC50 values for the respective kinases.

[4] = biological target: T2, CDK7HMAT1 (Homo sapiens, UniProt P50613); test: biochemical;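 further: kinase activity measured with an ADP-Glo luminescent kinase assay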
[5] = tested on: MV-4-11; test: Proliferation assay (resazurin/MTT), MV-4-11; format: cell-based; conditions: Homo sapiens, MV4-11, read-out: 72 h Growth inhibition GI50, MV-4-11 cells
[6] = biological target: T3, FLT3(D835Y) (Homo sapiens, UniProt P36888, D835Y); test: ADP Glo kinase assay, FLT3(D835Y); format: biochemical; conditions: apparent Ki calculated from Km (ATP) and IC50, read-out: FLT3 inhibition Ki
T3 sequence (P36888 27-993 D835Y): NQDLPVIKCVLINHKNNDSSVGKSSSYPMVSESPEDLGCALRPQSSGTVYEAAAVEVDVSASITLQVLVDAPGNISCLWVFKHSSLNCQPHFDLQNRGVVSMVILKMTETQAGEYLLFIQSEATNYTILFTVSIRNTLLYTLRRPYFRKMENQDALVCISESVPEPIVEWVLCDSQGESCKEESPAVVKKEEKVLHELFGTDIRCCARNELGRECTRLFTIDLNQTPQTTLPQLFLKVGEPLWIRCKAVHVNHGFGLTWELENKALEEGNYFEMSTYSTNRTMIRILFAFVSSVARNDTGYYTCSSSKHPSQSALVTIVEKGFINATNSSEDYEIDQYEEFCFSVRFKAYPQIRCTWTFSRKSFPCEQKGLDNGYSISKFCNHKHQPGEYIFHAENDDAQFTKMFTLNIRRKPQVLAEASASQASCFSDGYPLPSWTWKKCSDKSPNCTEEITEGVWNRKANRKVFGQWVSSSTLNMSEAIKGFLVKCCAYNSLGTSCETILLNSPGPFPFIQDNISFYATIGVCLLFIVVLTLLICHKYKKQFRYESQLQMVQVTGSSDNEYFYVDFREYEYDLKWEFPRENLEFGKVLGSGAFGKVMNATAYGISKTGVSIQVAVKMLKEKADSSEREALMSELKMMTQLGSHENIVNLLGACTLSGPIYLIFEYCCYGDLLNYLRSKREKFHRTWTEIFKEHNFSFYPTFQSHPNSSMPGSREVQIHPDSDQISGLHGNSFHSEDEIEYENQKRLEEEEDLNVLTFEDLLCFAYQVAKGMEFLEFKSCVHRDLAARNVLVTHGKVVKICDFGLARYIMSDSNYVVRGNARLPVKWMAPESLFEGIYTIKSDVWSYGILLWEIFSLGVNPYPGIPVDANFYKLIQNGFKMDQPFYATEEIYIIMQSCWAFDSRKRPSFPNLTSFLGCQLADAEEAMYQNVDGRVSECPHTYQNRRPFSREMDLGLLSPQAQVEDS
Procedure: (§2) Inhibition of FLT3(WT), FLT3(ITD) and FLT3(D835Y) and CDKs were determined using ADP Glo Kinase assays (Promega Corporation, Madison, WI, USA). […] The kinase reactions are run for an optimised time period (FLT3-WT: 120 min, FLT3-ITD: 80 min, FLT3-D835Y: 100 min) at room temperature and then the reaction was stopped by adding 5 μL of ADP Glo reagent. […] Positive and negative controls were performed in 0.5% DMSO in the presence and absence of each FLT3 kinase, respectively. […] Half-maximal inhibition (IC50) values were calculated using a 4-parameter logistic non-linear regression model with Graphpad prism (Version 6.0). Apparent inhibition constants (Ki) values were calculated from Km (ATP) and IC50 values for the respective kinases.

[7] = biological target: CDK9/CyclinT1 (Homo sapiens, UniProt P50750); test: ADP Glo kinase assay, CDK9/CyclinT1; format: biochemical; conditions: CDK9T1; apparent Ki calculated from Km (ATP) and IC50; read-out: CDK inhibition Ki
Procedure: as §1

[8] = biological target: CDK4/D1 (Homo sapiens, UniProt P11802); test: ADP Glo kinase assay, CDK4/D1; format: biochemical; conditions: CDK4D1; for Ki: apparent Ki calculated from Km (ATP) and IC50, read-out: CDK inhibition Ki
Procedure: as §1

[9] = biological target: T4, FLT3(WT) (Homo sapiens, UniProt P36888); test: ADP Glo kinase assay, FLT3(WT); format: biochemical; conditions: compound at 1 μM, read-out: residual enzymatic activity (%) at 1 μM
T4 sequence (P36888 27-993): T3 sequence (P36888 27-993 D835Y) with Y809D

[10] = biological target: T5, FLT3(ITD) (Homo sapiens, UniProt P36888); test: ADP Glo kinase assay, FLT3(ITD); format: biochemical; conditions: apparent Ki calculated from Km (ATP) and IC50, read-out: FLT3 inhibition Ki
T5 sequence (P36888 1-993): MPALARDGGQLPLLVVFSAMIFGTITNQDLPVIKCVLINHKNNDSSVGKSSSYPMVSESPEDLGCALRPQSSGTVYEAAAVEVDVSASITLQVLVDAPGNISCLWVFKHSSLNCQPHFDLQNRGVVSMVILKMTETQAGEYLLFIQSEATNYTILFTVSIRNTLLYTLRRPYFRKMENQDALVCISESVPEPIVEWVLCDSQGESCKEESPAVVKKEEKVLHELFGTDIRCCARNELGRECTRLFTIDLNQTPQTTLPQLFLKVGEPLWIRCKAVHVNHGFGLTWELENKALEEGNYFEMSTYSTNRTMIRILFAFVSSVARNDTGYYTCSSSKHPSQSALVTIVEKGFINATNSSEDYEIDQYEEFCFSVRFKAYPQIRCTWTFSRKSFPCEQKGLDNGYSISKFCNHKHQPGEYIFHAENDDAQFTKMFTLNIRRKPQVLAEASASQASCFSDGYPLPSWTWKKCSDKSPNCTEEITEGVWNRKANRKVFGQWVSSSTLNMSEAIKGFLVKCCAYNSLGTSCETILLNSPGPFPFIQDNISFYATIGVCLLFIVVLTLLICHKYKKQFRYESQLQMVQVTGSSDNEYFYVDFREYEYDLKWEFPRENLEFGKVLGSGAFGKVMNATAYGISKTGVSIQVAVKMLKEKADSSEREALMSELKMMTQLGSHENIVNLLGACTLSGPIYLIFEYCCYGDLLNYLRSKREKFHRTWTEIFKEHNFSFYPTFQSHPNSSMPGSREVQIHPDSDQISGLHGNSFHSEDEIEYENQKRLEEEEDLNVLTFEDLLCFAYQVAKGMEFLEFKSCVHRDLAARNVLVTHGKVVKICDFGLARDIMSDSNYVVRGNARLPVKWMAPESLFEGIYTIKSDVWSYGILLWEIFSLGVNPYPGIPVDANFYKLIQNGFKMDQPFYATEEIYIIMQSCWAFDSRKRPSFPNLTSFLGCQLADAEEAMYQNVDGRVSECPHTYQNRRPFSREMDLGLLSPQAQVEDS
Procedure: as §2

[11] = biological target: T6, CDK2E1 (Homo sapiens, UniProt P24941); test: biochemical
[12] = biological target: T6, CDK2E1; conditions: 1 µM
[13] = biological target: T2, CDK7HMAT1; conditions: 10 µM
[14] = biological target: T1, CDK1B; conditions: 1 µM
[15] = compound at 1 μM (values marked *), read-out: residual enzymatic activity (%) at 1 μM*

CDK4/D1, sequence (P11802 whole entry, species assumed): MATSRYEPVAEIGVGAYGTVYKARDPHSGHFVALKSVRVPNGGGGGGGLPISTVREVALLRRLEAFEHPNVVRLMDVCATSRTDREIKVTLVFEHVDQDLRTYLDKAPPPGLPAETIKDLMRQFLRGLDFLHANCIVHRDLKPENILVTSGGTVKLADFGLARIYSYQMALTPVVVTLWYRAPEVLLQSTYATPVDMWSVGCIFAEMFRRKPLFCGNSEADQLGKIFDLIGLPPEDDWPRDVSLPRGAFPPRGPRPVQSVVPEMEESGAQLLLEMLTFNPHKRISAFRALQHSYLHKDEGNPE
CDK4/D1, sequence (P24385 whole entry partner, species assumed): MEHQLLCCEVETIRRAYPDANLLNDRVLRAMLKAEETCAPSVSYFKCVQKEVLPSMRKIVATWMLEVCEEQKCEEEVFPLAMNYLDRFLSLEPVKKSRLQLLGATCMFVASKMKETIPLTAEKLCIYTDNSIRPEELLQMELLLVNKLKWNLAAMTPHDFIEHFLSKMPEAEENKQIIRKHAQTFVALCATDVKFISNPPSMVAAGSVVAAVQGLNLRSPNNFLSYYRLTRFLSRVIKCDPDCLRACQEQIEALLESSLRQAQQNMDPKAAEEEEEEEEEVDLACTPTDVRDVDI
T1 sequence (P06493 whole entry): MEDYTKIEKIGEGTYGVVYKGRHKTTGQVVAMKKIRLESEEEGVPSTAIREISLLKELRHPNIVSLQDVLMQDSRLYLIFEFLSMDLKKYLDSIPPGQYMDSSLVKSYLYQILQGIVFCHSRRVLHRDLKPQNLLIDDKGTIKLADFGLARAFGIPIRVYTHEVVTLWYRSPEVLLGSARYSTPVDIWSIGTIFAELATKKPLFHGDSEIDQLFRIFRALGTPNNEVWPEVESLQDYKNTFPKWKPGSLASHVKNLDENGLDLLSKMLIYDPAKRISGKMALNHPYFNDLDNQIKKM
T1 sequence (P14635 whole entry partner): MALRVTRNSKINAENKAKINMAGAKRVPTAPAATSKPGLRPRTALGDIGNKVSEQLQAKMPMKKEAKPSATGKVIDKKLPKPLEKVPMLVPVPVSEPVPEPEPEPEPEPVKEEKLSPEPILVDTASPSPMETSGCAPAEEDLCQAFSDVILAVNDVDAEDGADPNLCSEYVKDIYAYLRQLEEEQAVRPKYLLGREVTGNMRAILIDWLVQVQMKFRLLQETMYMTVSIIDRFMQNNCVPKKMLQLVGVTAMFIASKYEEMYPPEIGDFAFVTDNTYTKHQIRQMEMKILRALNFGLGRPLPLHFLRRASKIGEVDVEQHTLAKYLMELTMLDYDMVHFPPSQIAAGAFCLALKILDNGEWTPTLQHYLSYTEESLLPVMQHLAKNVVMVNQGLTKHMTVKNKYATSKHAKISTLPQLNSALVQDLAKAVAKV
CDK6/D3, sequence (Q00534 whole entry, species assumed): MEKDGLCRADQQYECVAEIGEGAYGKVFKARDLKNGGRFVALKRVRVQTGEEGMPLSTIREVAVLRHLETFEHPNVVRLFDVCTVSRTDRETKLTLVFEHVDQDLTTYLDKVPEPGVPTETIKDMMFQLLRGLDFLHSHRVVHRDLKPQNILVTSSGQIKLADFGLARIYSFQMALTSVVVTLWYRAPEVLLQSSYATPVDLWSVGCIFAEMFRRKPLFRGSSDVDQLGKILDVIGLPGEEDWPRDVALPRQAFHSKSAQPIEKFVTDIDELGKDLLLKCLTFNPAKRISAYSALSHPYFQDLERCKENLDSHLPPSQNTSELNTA
CDK6/D3, sequence (P30281 whole entry partner, species assumed): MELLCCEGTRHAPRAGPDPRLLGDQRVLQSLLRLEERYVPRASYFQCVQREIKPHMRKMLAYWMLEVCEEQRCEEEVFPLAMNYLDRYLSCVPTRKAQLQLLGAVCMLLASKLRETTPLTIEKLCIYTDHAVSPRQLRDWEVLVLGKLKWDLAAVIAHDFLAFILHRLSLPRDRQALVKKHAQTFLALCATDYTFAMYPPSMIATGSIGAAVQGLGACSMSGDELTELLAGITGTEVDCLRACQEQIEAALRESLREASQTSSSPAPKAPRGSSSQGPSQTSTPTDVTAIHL
CDK9/CyclinT1, sequence (P50750 whole entry, species assumed): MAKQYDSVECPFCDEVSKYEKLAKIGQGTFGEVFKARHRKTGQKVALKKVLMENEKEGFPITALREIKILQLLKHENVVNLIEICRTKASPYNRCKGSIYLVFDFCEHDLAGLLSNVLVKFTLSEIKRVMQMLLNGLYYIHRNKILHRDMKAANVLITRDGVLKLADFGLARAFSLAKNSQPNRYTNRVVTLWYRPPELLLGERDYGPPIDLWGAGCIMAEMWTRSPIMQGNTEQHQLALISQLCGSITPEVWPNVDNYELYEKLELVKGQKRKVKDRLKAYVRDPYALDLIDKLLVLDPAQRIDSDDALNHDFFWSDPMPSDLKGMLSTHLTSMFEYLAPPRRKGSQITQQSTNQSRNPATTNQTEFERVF
CDK9/CyclinT1, sequence (O60563 whole entry partner, species assumed): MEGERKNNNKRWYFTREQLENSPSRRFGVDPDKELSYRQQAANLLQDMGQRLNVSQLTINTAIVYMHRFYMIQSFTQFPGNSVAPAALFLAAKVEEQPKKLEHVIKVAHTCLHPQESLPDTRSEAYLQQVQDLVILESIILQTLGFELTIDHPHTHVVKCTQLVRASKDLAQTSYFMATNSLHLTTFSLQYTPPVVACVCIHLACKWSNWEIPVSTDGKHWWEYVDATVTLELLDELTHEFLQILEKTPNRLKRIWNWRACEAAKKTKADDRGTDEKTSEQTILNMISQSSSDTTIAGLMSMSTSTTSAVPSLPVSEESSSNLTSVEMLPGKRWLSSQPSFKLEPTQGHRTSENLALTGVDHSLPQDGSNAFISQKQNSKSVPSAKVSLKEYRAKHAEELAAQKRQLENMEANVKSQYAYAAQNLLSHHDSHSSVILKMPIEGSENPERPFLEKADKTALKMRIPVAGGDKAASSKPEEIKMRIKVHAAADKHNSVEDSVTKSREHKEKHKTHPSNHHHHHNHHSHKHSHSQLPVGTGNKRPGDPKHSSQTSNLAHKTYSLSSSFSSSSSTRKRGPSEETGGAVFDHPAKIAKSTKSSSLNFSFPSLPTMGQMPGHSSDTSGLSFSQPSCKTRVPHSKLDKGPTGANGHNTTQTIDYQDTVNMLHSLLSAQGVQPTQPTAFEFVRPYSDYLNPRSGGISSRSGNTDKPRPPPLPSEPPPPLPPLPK
T2 sequence (P50613 whole entry): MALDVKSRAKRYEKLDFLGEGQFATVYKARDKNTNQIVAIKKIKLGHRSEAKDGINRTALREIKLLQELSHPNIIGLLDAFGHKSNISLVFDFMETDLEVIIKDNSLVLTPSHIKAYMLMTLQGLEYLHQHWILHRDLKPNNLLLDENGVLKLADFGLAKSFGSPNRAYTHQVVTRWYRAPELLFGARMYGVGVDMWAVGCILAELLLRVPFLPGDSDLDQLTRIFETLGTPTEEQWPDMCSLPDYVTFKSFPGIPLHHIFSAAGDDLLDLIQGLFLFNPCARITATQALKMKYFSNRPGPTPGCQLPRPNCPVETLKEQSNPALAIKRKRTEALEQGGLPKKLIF
T2 sequence (P51946 whole entry partner): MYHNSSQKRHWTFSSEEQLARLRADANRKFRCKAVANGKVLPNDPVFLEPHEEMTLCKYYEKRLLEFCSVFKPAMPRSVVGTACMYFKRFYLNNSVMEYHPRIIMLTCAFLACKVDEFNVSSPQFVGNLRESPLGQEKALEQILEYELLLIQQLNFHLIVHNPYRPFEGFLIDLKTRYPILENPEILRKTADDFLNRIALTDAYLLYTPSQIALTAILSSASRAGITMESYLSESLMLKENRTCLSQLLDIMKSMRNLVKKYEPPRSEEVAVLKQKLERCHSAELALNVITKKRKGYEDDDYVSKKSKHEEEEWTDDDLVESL
T2 sequence (P51948 whole entry partner): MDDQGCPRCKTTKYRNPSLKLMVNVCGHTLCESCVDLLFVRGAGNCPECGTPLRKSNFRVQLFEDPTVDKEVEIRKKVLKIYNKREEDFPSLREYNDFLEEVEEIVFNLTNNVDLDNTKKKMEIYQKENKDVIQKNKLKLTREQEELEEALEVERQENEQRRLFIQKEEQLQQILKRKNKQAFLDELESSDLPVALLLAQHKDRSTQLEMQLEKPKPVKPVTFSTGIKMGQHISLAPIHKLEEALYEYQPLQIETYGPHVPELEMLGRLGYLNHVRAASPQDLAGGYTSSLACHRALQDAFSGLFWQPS

SMILES | Ki [1] | GI50 [2] | Ki [3] | Ki [4] | GI50 [5] | Ki [6] | Ki [7] | Ki [8] | remaining activity at 1 µM [9] | Ki [10] | Ki [11] | activity [12] | remaining activity at 10 µM ([3]; compound at 10 μM, read-out: residual enzymatic activity (%) at 10 μM) | activity [13] | remaining activity at 1 µM [3, 15] | remaining activity at 1 µM [8, 15] | activity [14]
CN1CCN(c2ccc(Nc3nccc(-c4cnc5ccccn45)n3)nc2)CC1 [Cmpd 2, 4-(Imidazo[1,2-a]pyridin-3-yl)-N-(5-(4-methylpiperazin-1-yl)pyridin-2-yl)pyrimidin-2-amine] | 1990 nM | 504 nM | 1050 nM | 1700 nM | 35 nM | 49 nM | 85 nM | 155 nM | 33% | 235 nM | – | – | – | – | – | – | –
CN1CCN(c2ccc(Nc3nccc(-c4cnc5ccc(-c6cn[nH]c6)cn45)n3)nc2)CC1 [Cmpd 67, 4-(6-(1H-Pyrazol-4-yl)imidazo[1,2-a]pyridin-3-yl)-N-(5-(4-methylpiperazin-1-yl)pyridin-2-yl)pyrimidin-2-amine] | – | 18 nM | – | – | 17 nM | – | 41 nM | – | – | 11 nM | 197 nM | – | – | – | – | – | –
CC(=O)N1CCN(c2ccc(Nc3nccc(-c4cnc5ccc(-c6cccs6)cn45)n3)nc2)CC1 [Cmpd 17, 1-(4-(6-((4-(6-(Thiophen-2-yl)imidazo[1,2-a]pyridin-3-yl)pyrimidin-2-yl)amino)pyridin-3-yl)piperazin-1-yl)ethan-1-one] | > 500 nM | 690 nM | – | 148 nM | 2 nM | – | 427 nM | 340 nM | – | – | – | 52% | 76% | – | – | – | –
Fc1ccc(Nc2nccc(-c3cnc4ccccn34)n2)nc1 [Cmpd 51, N-(5-Fluoropyridin-2-yl)-4-(imidazo[1,2-a]pyridin-3-yl)pyrimidin-2-amine] | – | 350 nM | – | – | 72 nM | – | – | – | – | – | 116 nM | – | – | – | – | – | –
c1ccc(Nc2nccc(-c3cnc4ccccn34)n2)nc1 [Cmpd 7, 4-(Imidazo[1,2-a]pyridin-3-yl)-N-(pyridin-2-yl)pyrimidin-2-amine] | 148 nM | 512 nM | 370 nM | – | 124 nM | 17 nM | 41 nM | 218 nM | 34% | 15 nM | 84 nM | – | – | 43% | – | – | –
CC(=O)N1CCN(c2ccc(Nc3ncc(F)c(-c4cnc5ccc(C)cn45)n3)nc2)CC1 [Cmpd 31, 1-(4-(6-((5-Fluoro-4-(6-methylimidazo[1,2-a]pyridin-3-yl)pyrimidin-2-yl)amino)pyridin-3-yl)piperazin-1-yl)ethan-1-one] | – | 19100 nM | – | – | 5 nM | – | 308 nM | – | – | – | 301 nM | – | – | – | 38% | 37% | 50%
